Experiment [1] concerns the target hPARG (C-terminal His6-tag) (Homo sapiens (Human), UniProt Q86W56). Put plainly: PARG Enzymatic Activity Assay (HTRF). It counts as biochemical. The following applies: hPARG 65 pM final, biotinylated-NAD ribosylated PARP1 8 nM final. As for the experimental part:
PARG Enzymatic Activity Assay HTRF assay was used to measure the ability of compounds to inhibit the activity of PARG in vitro. C-terminal His6-tag PARG expressed in E. coli was purified and stored at −80° C. in aliquots. Assay measurements were performed with 1×buffer comprising 50 mM Tris pH 7.4, 0.1 mg/mL BSA, 3 mM EDTA, 0.4 mM EGTA, 1 mM DTT, 50 mM KCl and 0.01% Tween 20.
Compounds dissolved in DMSO were plated into a 384-well assay plate (PerkinElmer, Catalog #: 6008280) in duplicate using a dispenser (Labcyte, Echo 665), and tested on a 10-point 4-fold serial dilution. Add 5 L Enzyme mix [hPARG (C-terminal His6-tag, 4.2 μM), 65 pM final] to the test wells. The plates were covered and left to incubate for 60 minutes at RT before the addition of 5 L substrate mix [biotinylated-NAD ribosylated PARP1 (6.1 μM), 8 nM final] to initiate reaction. After incubating 10 minutes at RT, add 2.5 L Streptavidin-Eu cryptate (Cisbio, Catalog #: 610SAKLA) and 2.5 L Mab anti 6HIS-XL665 (Cisbio, Catalog #: 61HISXLA) to the plate, and incubate for 60 minutes at RT. Read on a multimode plate reader (PerkinElmer, Envision 2015) in time-resolved fluorescence (TRF) mode, with excitation at 337 nm and emission at both 620 nm and 665 nm. Average HTRF signal of high control (Wells with 1% DMSO) was calculated and as Vehicle Control (VC). Average HTRF signal of low control (no Enzyme) was calculated and as Positive control (PC).
(§1) IC50 values were determined by fitting the data to the standard 4 parameters with Hill Slope using GraphPad Prism software.
A general note: Time-resolved FRET reads energy transfer from a long-lived donor to a nearby acceptor.

Experiment [2] deals with Kuramochi cell line. Put plainly: Cell Viability Assay (Cell Titer-Glo, 7 days). It counts as cell-based. The following applies: 168 h, Kuramochi cells, 7 days incubation, read-out: PARG Cell viability (IC50). As for the experimental part: Cell viability studies were conducted in Kuramochi cell line. Cells were maintained in RPMI (Hyclone, Catalog #: SH3080901B) supplemented with 10% v/v FBS (AusGeneX, Catalog #: FBS500-S), 1% v/v Penicillin Streptomycin (Gibco, Catalog #: 15140122). Cells were seeded in 96-well plates (PerkinElmer, Catalog #: 6005680) at a density of 400 cells/well. Compounds dissolved in DMSO were plated in duplicate using a multichannel pipette, and tested on a 9-point 3-fold serial dilution. Cells were incubated for 7 days in a 37° C. active humidified incubator at 5% CO2. Cell viability was measured using the Cell Titer-Glo reagent (Promega, Catalog #: G7573) as manufacturer's instructions. Luminescence signal was measured with a multimode plate reader (Perkin Elmer, Envision 2105 or BMG, ClarioStar Plus). Average values of DMSO treated wells in a plate was calculated and as high control (HC). Average values of only medium in a plate was calculated and as low control (LC)
as §1

These results are taken from patent US20250388589A1, “TRICYCLIC HETEROCYCLIC DERIVATIVES, COMPOSITIONS AND USES THEREOF” (Danatlas Pharmaceuticals Co., Ltd., priority 2022, published 2025).

Usually IC50 stands for the concentration that gives 50% inhibition.

Sequence of hPARG (C-terminal His6-tag) (Q86W56 whole entry): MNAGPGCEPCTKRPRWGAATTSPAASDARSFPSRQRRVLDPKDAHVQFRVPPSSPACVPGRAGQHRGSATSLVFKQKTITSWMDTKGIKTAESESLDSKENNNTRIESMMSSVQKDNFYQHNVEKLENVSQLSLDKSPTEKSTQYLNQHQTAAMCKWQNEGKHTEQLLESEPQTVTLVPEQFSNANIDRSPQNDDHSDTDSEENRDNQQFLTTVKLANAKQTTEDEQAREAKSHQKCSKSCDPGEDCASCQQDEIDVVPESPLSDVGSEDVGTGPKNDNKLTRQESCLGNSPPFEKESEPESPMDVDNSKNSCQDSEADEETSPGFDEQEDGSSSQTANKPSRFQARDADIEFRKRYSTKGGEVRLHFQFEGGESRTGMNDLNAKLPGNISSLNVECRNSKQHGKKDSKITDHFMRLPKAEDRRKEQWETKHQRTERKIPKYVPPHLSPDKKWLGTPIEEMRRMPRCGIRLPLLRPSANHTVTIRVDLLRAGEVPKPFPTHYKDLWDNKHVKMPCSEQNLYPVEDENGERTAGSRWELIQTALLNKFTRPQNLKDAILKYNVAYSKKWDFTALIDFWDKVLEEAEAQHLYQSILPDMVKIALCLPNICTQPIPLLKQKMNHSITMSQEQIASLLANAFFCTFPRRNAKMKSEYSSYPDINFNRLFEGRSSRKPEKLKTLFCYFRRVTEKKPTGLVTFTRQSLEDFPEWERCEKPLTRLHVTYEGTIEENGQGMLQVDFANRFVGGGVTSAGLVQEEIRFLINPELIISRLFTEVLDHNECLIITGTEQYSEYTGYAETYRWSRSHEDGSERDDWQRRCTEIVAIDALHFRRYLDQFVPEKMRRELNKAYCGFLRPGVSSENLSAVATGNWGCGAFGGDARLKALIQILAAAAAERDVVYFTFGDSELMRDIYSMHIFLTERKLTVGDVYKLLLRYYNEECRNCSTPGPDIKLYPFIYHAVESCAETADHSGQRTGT

Turning to `CN1CCC(c2ncnc3c2c2ccc(S(=O)(=O)NC4(C#N)CC4)cc2n3-c2nnc(C(F)F)s2)CC1` [Example 146, N-(1-Cyanocyclopropyl)-9-(5-(difluoromethyl)-1,3,4-thiadiazol-2-yl)-4-(1-methylpiperidin-4-yl)-9H-pyrimido[4,5-b]indole-7-sulfonamide], the IC50 in experiment [1] and in experiment [2] was under 100 nM each time. For `COC1CCN(c2ncnc3c2c2ccc(S(=O)(=O)NC4(C#N)CC4)cc2n3-c2nnc(C(F)F)s2)CC1` [Example 44, N-(1-Cyanocyclopropyl)-9-(5-(difluoromethyl)-1,3,4-thiadiazol-2-yl)-4-(4-methoxypiperidin-1-yl)-9H-pyrimido[4,5-b]indole-7-sulfonamide], the IC50 in experiment [1] and in experiment [2] was under 100 nM throughout. For the molecule `CN1CCC[C@H]1C(=O)N1CCC(c2ncnc3c2c2ccc(S(=O)(=O)NC4(C#N)CC4)cc2n3-c2nnc(C(F)F)s2)CC1` [Example 112, N-(1-cyanocyclopropyl)-9-(5-(difluoromethyl)-1,3,4-thiadiazol-2-yl)-4-(1-(methyl-L-prolyl)piperidin-4-yl)-9H-pyrimido[4,5-b]indole-7-sulfonamide], the half-inhibitory concentration (IC50) is under 100 nM in experiment [1] and 100 to 1000 nM in experiment [2]. Turning to `C[C@@H]1COCCN1c1ncnc2c1c1ccc(S(=O)(=O)NC3(C#N)CC3)cc1n2-c1nnc(C(F)F)s1` [Example 199, (R)—N-(1-Cyanocyclopropyl)-9-(5-(difluoromethyl)-1,3,4-thiadiazol-2-yl)-4-(3-methylmorpholino)-9H-pyrimido[4,5-b]indole-7-sulfonamide], the 50% inhibitory concentration (IC50) in experiment [1] and in experiment [2] was under 100 nM throughout. Take `C[C@H]1CN(c2ncnc3c2c2cc(F)c(S(=O)(=O)NC4(C)CC4)cc2n3-c2nnc(C(F)F)s2)CCN1C(=O)N(C)C` [Example 102, (S)-4-(9-(5-(Difluoromethyl)-1,3,4-thiadiazol-2-yl)-6-fluoro-7-(N-(1-methylcyclopropyl)sulfamoyl)-9H-pyrimido[4,5-b]indol-4-yl)-N,N,2-trimethylpiperazine-1-carboxamide]: the concentration for half-maximal inhibition (IC50) in experiment [1] and in experiment [2] was under 100 nM each time. As for `N#CC1(NS(=O)(=O)c2ccc3c4c(N5CC6OCCOC6C5)ncnc4n(-c4nnc(C(F)F)s4)c3c2)CC1` (stereo not shown) [Example 165, N-(1-Cyanocyclopropyl)-9-(5-(difluoromethyl)-1,3,4-thiadiazol-2-yl)-4-(hexahydro-6H-[1,4]dioxino[2,3-c]pyrrol-6-yl)-9H-pyrimido[4,5-b]indole-7-sulfonamide], the half-inhibitory concentration (IC50) in experiment [1] and in experiment [2] was 100 to 1000 nM throughout. `CC1(NS(=O)(=O)c2ccc3c4c(C5CCN(C(=O)N6CC[C@H](O)C6)CC5)ncnc4n(-c4nnc(C(F)F)s4)c3c2)CC1` [Example 131, (S)-9-(5-(Difluoromethyl)-1,3,4-thiadiazol-2-yl)-4-(1-(3-hydroxypyrrolidine-1-carbonyl)piperidin-4-yl)-N-(1-methylcyclopropyl)-9H-pyrimido[4,5-b]indole-7-sulfonamide]: the half-maximal inhibitory concentration (IC50) in experiment [1] and in experiment [2] was under 100 nM each time. In the case of `Cc1nnc(-n2c3cc(S(=O)(=O)NC4(C#N)CC4)ccc3c3c(N4CCN(C(=O)C5CC5)CC4)ncnc32)s1` [Example 185, N-(1-Cyanocyclopropyl)-4-(4-(cyclopropanecarbonyl)piperazin-1-yl)-9-(5-methyl-1,3,4-thiadiazol-2-yl)-9H-pyrimido[4,5-b]indole-7-sulfonamide], the half-maximal inhibitory concentration (IC50) in experiment [1] and in experiment [2] was 100 to 1000 nM in each case. Take `CC(C)C(=O)N1CC=C(c2ccnc3c2c2ccc(S(=O)(=O)NC4(C#N)CC4)cc2n3-c2nnc(C(F)F)s2)CC1` [Example 196, N-(1-Cyanocyclopropyl)-9-(5-(difluoromethyl)-1,3,4-thiadiazol-2-yl)-4-(1-isobutyryl-1,2,3,6-tetrahydropyridin-4-yl)-9H-pyrido[2,3-b]indole-7-sulfonamide]: the 50% inhibitory concentration (IC50) was under 100 nM in experiment [1] and 100 to 1000 nM in experiment [2]. On the same counts, the results for `CN(C)C(=O)N1CC=C(c2ncnc3c2c2cc(F)c(S(=O)(=O)NC4(C)CC4)cc2n3-c2nnc(C(F)F)s2)CC1` [Example 81, 4-(9-(5-(Difluoromethyl)-1,3,4-thiadiazol-2-yl)-6-fluoro-7-(N-(1-methylcyclopropyl)sulfamoyl)-9H-pyrimido[4,5-b]indol-4-yl)-N,N-dimethyl-3,6-dihydropyridine-1(2H)-carboxamide] are under 100 nM and under 100 nM. Turning to `N#CC1(NS(=O)(=O)c2ccc3c4c(C5CCN(C(=O)[C@H]6CCCO6)CC5)ncnc4n(-c4nnc(C(F)F)s4)c3c2)CC1` [Example 110, (R)-N-(1-cyanocyclopropyl)-9-(5-(difluoromethyl)-1,3,4-thiadiazol-2-yl)-4-(1-(tetrahydrofuran-2-carbonyl)piperidin-4-yl)-9H-pyrimido[4,5-b]indole-7-sulfonamide], the IC50 in experiment [1] and in experiment [2] was under 100 nM in each case. Take `CC(C)C(=O)N1CCN(c2ncnc3c2c2ccc(S(=O)(=O)NC4(C#N)CC4)cc2n3-c2nnc(C(F)F)s2)CC1` [Example 11, N-(1-Cyanocyclopropyl)-9-(5-(difluoromethyl)-1,3,4-thiadiazol-2-yl)-4-(4-isobutyrylpiperazin-1-yl)-9H-pyrimido[4,5-b]indole-7-sulfonamide]: the IC50 in experiment [1] and in experiment [2] was under 100 nM in each case. As for `N#CC1(NS(=O)(=O)c2ccc3c4c(N5CC6CN(C(=O)C7COC7)CC6C5)ncnc4n(-c4nnc(C(F)F)s4)c3c2)CC1` (stereo not shown) [Example 71, N-(1-Cyanocyclopropyl)-9-(5-(difluoromethyl)-1,3,4-thiadiazol-2-yl)-4-(5-(oxetane-3-carbonyl)hexahydropyrrolo[3,4-c]pyrrol-2(1H)-yl)-9H-pyrimido[4,5-b]indole-7-sulfonamide], the half-inhibitory concentration (IC50) in experiment [1] was under 100 nM; in experiment [2], 100 to 1000 nM.

On to `CC(C)C(=O)N1CCN(c2ncnc3c2c2ccc(S(=O)(=O)NC4(C#N)CC4)cc2n3-c2nnc(C(F)F)s2)C[C@@H]1C` [Example 61, (S)-N-(1-cyanocyclopropyl)-9-(5-(difluoromethyl)-1,3,4-thiadiazol-2-yl)-4-(4-isobutyryl-3-methylpiperazin-1-yl)-9H-pyrimido[4,5-b]indole-7-sulfonamide], for which the IC50 in experiment [1] and in experiment [2] was under 100 nM in each case.

Take `CN(C)C(=O)C1CCN(c2ncnc3c2c2ccc(S(=O)(=O)NC4(C#N)CC4)cc2n3-c2nnc(C(F)F)s2)CC1` [Example 179, 1-(7-(N-(1-Cyanocyclopropyl)sulfamoyl)-9-(5-(difluoromethyl)-1,3,4-thiadiazol-2-yl)-9H-pyrimido[4,5-b]indol-4-yl)-N,N-dimethylpiperidine-4-carboxamide]: the IC50 in experiment [1] and in experiment [2] was under 100 nM each time. Take `N#CC1(NS(=O)(=O)c2ccc3c4c(N5CCS(=O)(=O)CC5)ncnc4n(-c4nnc(C(F)F)s4)c3c2)CC1` [Example 166, N-(1-cyanocyclopropyl)-9-(5-(difluoromethyl)-1,3,4-thiadiazol-2-yl)-4-(1,1-dioxidothiomorpholino)-9H-pyrimido[4,5-b]indole-7-sulfonamide]: the IC50 in experiment [1] was under 100 nM; in experiment [2] it was 100 to 1000 nM. As for `N#CC1(NS(=O)(=O)c2ccc3c4c(N5CCN(C(=O)c6ccccn6)CC5)ncnc4n(-c4nnc(C(F)F)s4)c3c2)CC1` [Example 14, N-(1-Cyanocyclopropyl)-9-(5-(difluoromethyl)-1,3,4-thiadiazol-2-yl)-4-(4-picolinoylpiperazin-1-yl)-9H-pyrimido[4,5-b]indole-7-sulfonamide], in experiment [2], the IC50 was under 100 nM. For `CC(C)C(=O)N1C[C@H]2CC[C@@H]1CN2c1ncnc2c1c1ccc(S(=O)(=O)NC3(C#N)CC3)cc1n2-c1nnc(C(F)F)s1` [Example 32, N-(1-Cyanocyclopropyl)-9-(5-(difluoromethyl)-1,3,4-thiadiazol-2-yl)-4-((1R,4R)-5-isobutyryl-2,5-diazabicyclo[2.2.2]octan-2-yl)-9H-pyrimido[4,5-b]indole-7-sulfonamide], the 50% inhibitory concentration (IC50) in experiment [2] lay within 100 to 1000 nM.
